This note sets out measurements from ChEMBL document CHEMBL5584201, “Amphiphilic tribasic galactosamines potentiate rifampicin in Gram-negative bacteria at low Mg++/Ca++concentrations” (Bioorg Med Chem Lett, 2024).

One assay relates to Acinetobacter baumannii. Description: Potentiation of rifampicin-induced antibacterial activity against Acinetobacter baumannii ATCC 17978 assessed as fold change in rifampicin MIC in low salt containing media by Mueller-Hinton broth based assay. In kind it is functional.
Turning to `CCCCCCCCO[C@@H]1O[C@H](CN)[C@H](N)[C@H](OCc2ccc3cccnc3c2)[C@H]1N`, the “fold change (FC)” value is recorded as 64.

Regarding `CCCCCCCCO[C@H]1[C@@H](N)[C@@H](CN=[N+]=[N-])O[C@@H](OCc2ccc3ccccc3c2)[C@@H]1N`, the “fold change (FC)” value came out at 128.

As to `CCCCCCO[C@@H]1O[C@H](CN)[C@H](N)[C@H](OCc2ccc3ccccc3c2)[C@H]1N`, the “fold change (FC)” value is reported as 32.

As to `CCCCCCCCO[C@@H]1O[C@H](CO)[C@H](N)[C@H](OCc2ccc3ccccc3c2)[C@H]1N`, the “fold change (FC)” value is given as 2.

Consider `NC[C@H]1O[C@@H](OCCCc2ccccc2)[C@H](N)[C@@H](OCc2ccc3ccccc3c2)[C@H]1N`, for which the “fold change (FC)” value is 32.

In the case of `CCCCCCCCCCCCO[C@@H]1O[C@H](CN)[C@H](N)[C@H](OCc2ccc3ccccc3c2)[C@H]1N`, the “fold change (FC)” value is given as 8.

With `CCCCCCCCO[C@@H]1O[C@H](CN)[C@H](N)[C@H](OCc2ccccc2)[C@H]1N`, the “fold change (FC)” value stood at 16.

The subject of a further assay is Escherichia coli. Briefly: Potentiation of rifampicin-induced antibacterial activity against Escherichia coli ATCC 25922 assessed as rifampicin MIC in low salt containing media by Mueller-Hinton broth based assay. In kind it is functional.
A word on the MIC: it is the lowest concentration found to suppress growth. Take `CCCCCCCCO[C@@H]1O[C@H](CN)[C@H](N)[C@H](OCc2ccc3cccnc3c2)[C@H]1N`: the MIC was 8 µg/mL.

`CCCCCCCCO[C@H]1[C@@H](N)[C@@H](CN=[N+]=[N-])O[C@@H](OCc2ccc3ccccc3c2)[C@@H]1N`: the MIC is 1 µg/mL.

Regarding `CCCCCCO[C@@H]1O[C@H](CN)[C@H](N)[C@H](OCc2ccc3ccccc3c2)[C@H]1N`, the MIC was 16 µg/mL.

On to `CCCCCCCCO[C@@H]1O[C@H](CO)[C@H](N)[C@H](OCc2ccc3ccccc3c2)[C@H]1N`, for which the MIC was 8 µg/mL.

For `NC[C@H]1O[C@@H](OCCCc2ccccc2)[C@H](N)[C@@H](OCc2ccc3ccccc3c2)[C@H]1N`, the minimum inhibitory concentration (MIC) is 16 µg/mL.

With `CCCCCCCCCCCCO[C@@H]1O[C@H](CN)[C@H](N)[C@H](OCc2ccc3ccccc3c2)[C@H]1N`, the MIC was 0.5 µg/mL.

Regarding `CCCCCCCCO[C@@H]1O[C@H](CN)[C@H](N)[C@H](OCc2ccccc2)[C@H]1N`, the minimum inhibitory concentration (MIC) was found to be 16 µg/mL.

The test system of another assay is Acinetobacter baumannii. Briefly: Potentiation of rifampicin-induced antibacterial activity against Acinetobacter baumannii ATCC 17978 assessed as rifampicin MIC in low salt containing media by Mueller-Hinton broth based assay. In kind it is functional.
Regarding `CCCCCCCCO[C@@H]1O[C@H](CN)[C@H](N)[C@H](OCc2ccc3cccnc3c2)[C@H]1N`, the MIC is 8 µg/mL.

Turning to `CCCCCCCCO[C@H]1[C@@H](N)[C@@H](CN=[N+]=[N-])O[C@@H](OCc2ccc3ccccc3c2)[C@@H]1N`, the MIC is 4 µg/mL.

On to `CCCCCCO[C@@H]1O[C@H](CN)[C@H](N)[C@H](OCc2ccc3ccccc3c2)[C@H]1N`, for which the MIC amounted to 16 µg/mL.

As for `CCCCCCCCO[C@@H]1O[C@H](CO)[C@H](N)[C@H](OCc2ccc3ccccc3c2)[C@H]1N`, the MIC was 8 µg/mL.

For `NC[C@H]1O[C@@H](OCCCc2ccccc2)[C@H](N)[C@@H](OCc2ccc3ccccc3c2)[C@H]1N`, the MIC amounted to 16 µg/mL.

For the molecule `CCCCCCCCCCCCO[C@@H]1O[C@H](CN)[C@H](N)[C@H](OCc2ccc3ccccc3c2)[C@H]1N`, the MIC was determined as 1 µg/mL.

Consider `CCCCCCCCO[C@@H]1O[C@H](CN)[C@H](N)[C@H](OCc2ccccc2)[C@H]1N`, for which the MIC was determined as 16 µg/mL.

Another assay concerns Pseudomonas aeruginosa. Description: Potentiation of rifampicin-induced antibacterial activity against Pseudomonas aeruginosa PAO1 assessed as fold change in rifampicin MIC in low salt containing media by Mueller-Hinton broth based assay. The assay is classed as functional.
Regarding `CCCCCCCCO[C@@H]1O[C@H](CN)[C@H](N)[C@H](OCc2ccc3cccnc3c2)[C@H]1N`, the “fold change (FC)” value came to 2.

In the case of `CCCCCCCCO[C@H]1[C@@H](N)[C@@H](CN=[N+]=[N-])O[C@@H](OCc2ccc3ccccc3c2)[C@@H]1N`, the “fold change (FC)” value was 2.

`CCCCCCO[C@@H]1O[C@H](CN)[C@H](N)[C@H](OCc2ccc3ccccc3c2)[C@H]1N`: the “fold change (FC)” value is reported as 1.

For `CCCCCCCCO[C@@H]1O[C@H](CO)[C@H](N)[C@H](OCc2ccc3ccccc3c2)[C@H]1N`, the “fold change (FC)” value came out at 1.

Regarding `NC[C@H]1O[C@@H](OCCCc2ccccc2)[C@H](N)[C@@H](OCc2ccc3ccccc3c2)[C@H]1N`, the “fold change (FC)” value is recorded as 2.

Consider `CCCCCCCCCCCCO[C@@H]1O[C@H](CN)[C@H](N)[C@H](OCc2ccc3ccccc3c2)[C@H]1N`, for which the “fold change (FC)” value worked out at 1.

As for `CCCCCCCCO[C@@H]1O[C@H](CN)[C@H](N)[C@H](OCc2ccccc2)[C@H]1N`, the “fold change (FC)” value was determined as 1.

A further assay deals with Escherichia coli. Briefly: Antibacterial activity against Escherichia coli ATCC 25922 in low salt containing media by Mueller-Hinton broth based assay. The assay is classed as functional.
In the case of `CCCCCCCCO[C@@H]1O[C@H](CN)[C@H](N)[C@H](OCc2ccc3cccnc3c2)[C@H]1N`, the MIC stood at 64 µg/mL.

Regarding `CCCCCCCCO[C@H]1[C@@H](N)[C@@H](CN=[N+]=[N-])O[C@@H](OCc2ccc3ccccc3c2)[C@@H]1N`, the MIC stood at 8 µg/mL.

`CCCCCCO[C@@H]1O[C@H](CN)[C@H](N)[C@H](OCc2ccc3ccccc3c2)[C@H]1N`: the MIC was determined as 64 µg/mL.

As for `CCCCCCCCO[C@@H]1O[C@H](CO)[C@H](N)[C@H](OCc2ccc3ccccc3c2)[C@H]1N`, the MIC was found to be 32 µg/mL.

As to `NC[C@H]1O[C@@H](OCCCc2ccccc2)[C@H](N)[C@@H](OCc2ccc3ccccc3c2)[C@H]1N`, the MIC was 64 µg/mL.

With `CCCCCCCCCCCCO[C@@H]1O[C@H](CN)[C@H](N)[C@H](OCc2ccc3ccccc3c2)[C@H]1N`, the MIC was 4 µg/mL.

Take `CCCCCCCCO[C@@H]1O[C@H](CN)[C@H](N)[C@H](OCc2ccccc2)[C@H]1N`: the MIC came to 64 µg/mL.

The next assay has as its system Pseudomonas aeruginosa. Description: Potentiation of rifampicin-induced antibacterial activity against Pseudomonas aeruginosa PAO1 assessed as rifampicin MIC in low salt containing media by Mueller-Hinton broth based assay. In kind it is functional.
Consider `CCCCCCCCO[C@@H]1O[C@H](CN)[C@H](N)[C@H](OCc2ccc3cccnc3c2)[C@H]1N`, for which the MIC was determined as 8 µg/mL.

As to `CCCCCCCCO[C@H]1[C@@H](N)[C@@H](CN=[N+]=[N-])O[C@@H](OCc2ccc3ccccc3c2)[C@@H]1N`, the minimum inhibitory concentration (MIC) is 8 µg/mL.

In the case of `CCCCCCO[C@@H]1O[C@H](CN)[C@H](N)[C@H](OCc2ccc3ccccc3c2)[C@H]1N`, the MIC was 16 µg/mL.

With `CCCCCCCCO[C@@H]1O[C@H](CO)[C@H](N)[C@H](OCc2ccc3ccccc3c2)[C@H]1N`, the MIC came to 16 µg/mL.

Consider `NC[C@H]1O[C@@H](OCCCc2ccccc2)[C@H](N)[C@@H](OCc2ccc3ccccc3c2)[C@H]1N`, for which the MIC turned out to be 16 µg/mL.

Regarding `CCCCCCCCCCCCO[C@@H]1O[C@H](CN)[C@H](N)[C@H](OCc2ccc3ccccc3c2)[C@H]1N`, the MIC is 2 µg/mL.

As for `CCCCCCCCO[C@@H]1O[C@H](CN)[C@H](N)[C@H](OCc2ccccc2)[C@H]1N`, the MIC is 16 µg/mL.

The next assay has as its system Escherichia coli. Briefly: Potentiation of rifampicin-induced antibacterial activity against Escherichia coli ATCC 25922 assessed as fold change in rifampicin MIC in low salt containing media by Mueller-Hinton broth based assay. The assay is classed as functional.
For `CCCCCCCCO[C@@H]1O[C@H](CN)[C@H](N)[C@H](OCc2ccc3cccnc3c2)[C@H]1N`, the “fold change (FC)” value is reported as 32.

Regarding `CCCCCCCCO[C@H]1[C@@H](N)[C@@H](CN=[N+]=[N-])O[C@@H](OCc2ccc3ccccc3c2)[C@@H]1N`, the “fold change (FC)” value amounted to 8.

Turning to `CCCCCCO[C@@H]1O[C@H](CN)[C@H](N)[C@H](OCc2ccc3ccccc3c2)[C@H]1N`, the “fold change (FC)” value is listed as 32.

As to `CCCCCCCCO[C@@H]1O[C@H](CO)[C@H](N)[C@H](OCc2ccc3ccccc3c2)[C@H]1N`, the “fold change (FC)” value was found to be 2.

With `NC[C@H]1O[C@@H](OCCCc2ccccc2)[C@H](N)[C@@H](OCc2ccc3ccccc3c2)[C@H]1N`, the “fold change (FC)” value was found to be 32.

For `CCCCCCCCCCCCO[C@@H]1O[C@H](CN)[C@H](N)[C@H](OCc2ccc3ccccc3c2)[C@H]1N`, the “fold change (FC)” value stood at 1.

With `CCCCCCCCO[C@@H]1O[C@H](CN)[C@H](N)[C@H](OCc2ccccc2)[C@H]1N`, the “fold change (FC)” value is 16.

The test system of a further assay is Pseudomonas aeruginosa. Briefly: Antibacterial activity against Pseudomonas aeruginosa PAO1 in low salt containing media by Mueller-Hinton broth based assay. The assay is classed as functional.
As for `CCCCCCCCO[C@@H]1O[C@H](CN)[C@H](N)[C@H](OCc2ccc3cccnc3c2)[C@H]1N`, the MIC is above 128 µg/mL.

For `CCCCCCCCO[C@H]1[C@@H](N)[C@@H](CN=[N+]=[N-])O[C@@H](OCc2ccc3ccccc3c2)[C@@H]1N`, the MIC was determined as 32 µg/mL.

As for `CCCCCCO[C@@H]1O[C@H](CN)[C@H](N)[C@H](OCc2ccc3ccccc3c2)[C@H]1N`, the MIC is above 128 µg/mL.

In the case of `CCCCCCCCO[C@@H]1O[C@H](CO)[C@H](N)[C@H](OCc2ccc3ccccc3c2)[C@H]1N`, the minimal inhibitory concentration (MIC) was above 128 µg/mL.

`NC[C@H]1O[C@@H](OCCCc2ccccc2)[C@H](N)[C@@H](OCc2ccc3ccccc3c2)[C@H]1N`: the MIC is above 128 µg/mL.

Turning to `CCCCCCCCCCCCO[C@@H]1O[C@H](CN)[C@H](N)[C@H](OCc2ccc3ccccc3c2)[C@H]1N`, the MIC amounted to 8 µg/mL.

In the case of `CCCCCCCCO[C@@H]1O[C@H](CN)[C@H](N)[C@H](OCc2ccccc2)[C@H]1N`, the MIC is above 128 µg/mL.

The test system of another assay is Acinetobacter baumannii. Briefly: Antibacterial activity against Acinetobacter baumannii ATCC 17978 in low salt containing media by Mueller-Hinton broth based assay. In kind it is functional.
Take `CCCCCCCCO[C@@H]1O[C@H](CN)[C@H](N)[C@H](OCc2ccc3cccnc3c2)[C@H]1N`: the MIC amounted to 128 µg/mL.

For `CCCCCCCCO[C@H]1[C@@H](N)[C@@H](CN=[N+]=[N-])O[C@@H](OCc2ccc3ccccc3c2)[C@@H]1N`, the MIC is 16 µg/mL.

With `CCCCCCO[C@@H]1O[C@H](CN)[C@H](N)[C@H](OCc2ccc3ccccc3c2)[C@H]1N`, the MIC was found to be 128 µg/mL.

In the case of `CCCCCCCCO[C@@H]1O[C@H](CO)[C@H](N)[C@H](OCc2ccc3ccccc3c2)[C@H]1N`, the minimum inhibitory concentration (MIC) is 32 µg/mL.

As for `NC[C@H]1O[C@@H](OCCCc2ccccc2)[C@H](N)[C@@H](OCc2ccc3ccccc3c2)[C@H]1N`, the MIC came out at 128 µg/mL.

On to `CCCCCCCCCCCCO[C@@H]1O[C@H](CN)[C@H](N)[C@H](OCc2ccc3ccccc3c2)[C@H]1N`, for which the MIC amounted to 4 µg/mL.

For the molecule `CCCCCCCCO[C@@H]1O[C@H](CN)[C@H](N)[C@H](OCc2ccccc2)[C@H]1N`, the minimal inhibitory concentration (MIC) is above 128 µg/mL.
